Literature values in patent US10329245B2, “Method for making a prenyl group-substituted tyrosine compound” (King Fahd University of Petroleum and Minerals, priority 2015, dated 2019).
Where two headings read alike, the source gives them in different places.

Test system: AGS (human gastric adenocarcinoma) cells
Settings: AGS cell lines, p<0.01

SMILES: CC(=O)N[C@@H](Cc1ccc(O)c(CC=C(C)C)c1)C(=O)O [compound 1, (S)-2-Acetamido-3-(4-hydroxy-3-(3-methylbut-2-enyl)phenyl)propanoic acid]
- cell viability, % of control levels (75 μM compound 1 combined with 100 ng/mL TRAIL): 77±7%
- cell viability, % of control levels (150 μM compound 1 combined with 100 ng/mL TRAIL): 67±5%
